Patent US12240827B2, “Serotonin 5-HT2B inhibitory compounds” (Zoetis Services LLC, priority 2019, dated 2025)

Key:
c5-HT2B = conditions: literature value; cited from earlier work
hERG = molecular target: T1, hERG (Homo sapiens, UniProt Q12809); assay: hERG in-vitro assay, IonWorks Barracuda population patch clamp; assay type: cell-based; conditions: hERG/HEK293 cells; hERG current block, 5 minutes exposure
T1 construct: stably transfected with full length hERG cDNA; expressed in transfected cells; host or cells: HEK293
Procedure: Stock solutions of compounds of the invention and positive control (cisapride; 0.001-3 μM) were prepared in DMSO. Stock solutions were diluted in a HEPES-buffered physiological saline solution. Test and control solutions contained 0.3% DMSO. Human hERG/HEK293 renal epithelial cells stably transfected with full length hERG cDNA were cultured in Dulbecco's Modified Eagle Medium/Nutrient Mixture F-12 (D-MEM/F-12) supplemented with 10% fetal bovine serum, 100 U/mL penicillin G sodium, 100 μg/mL streptomycin sulfate and 500 μg/mL G418. Before testing, cells in culture dishes were rinsed with Hank's Balanced Salt Solution (HBSS) and detached with accutase. Immediately before use in the IonWorks Barracuda™ system, the cells were washed with buffered physiological saline solution (HB-PS) buffer to remove the accutase and re-suspended in 5 mL of HB-PS. The test article effects were evaluated using IonWorks Barracuda™ systems (Molecular Devices Corporation, Union City, CA). HEPES-buffered intracellular solution for whole cell recordings was loaded into the intracellular compartment of the Population Patch Clamp™ (PPC) planar electrode.
Extracellular buffer (HB-PS) was loaded into PPC planar electrode plate wells (11 μL/well). The cell suspension was pipetted into the wells of the PPC planar electrode (9 μL/well). After establishment of a whole-cell configuration (the perforated patch), membrane currents were recorded using patch clamp amplifier in the IonWorks Barracuda™ system. The current recordings were performed one (1) time before test article application to the cells (baseline) and one (1) time after application of the test article. Test article concentrations were applied to naïve cells. Each application consisted of addition of 20 μL of 2× concentrated test article solution to the total 40 μL of final volume of the extracellular well of the PPC plate. Duration of exposure to each compound concentration was five (5) minutes. hERG current was elicited using a pulse pattern with fixed amplitudes (the first conditioning pre-pulse to 10 mV for 60 second, the second conditioning pre-pulse: −90 mV for 20 ms; the test pulse: +40 mV for 100 ms) from a holding potential of 0 mV (‘zero holding’ procedure). hERG current was measured as a difference between the peak current at 1 ms and at the end of test step to +40 mV. Data acquisition and analyses were performed using the IonWorks Barracuda™ system operation software (version 2.0.2). The decrease in current amplitude after test article application was used to calculate the percent block relative to control. Results for each test article concentration (n≥1) were averaged; the mean and standard deviation values were calculated and used to generate dose-response curves.

canine 5-HT2B receptor = molecular target: T2, canine 5-HT2B receptor (Canis lupus familiaris, UniProt Q50DZ8); assay: Canine 5-HT2B (c5-HT2B) in-vitro assay, FLIPR calcium response; assay type: cell-based; conditions: CHO-K1 cells stably expressing canine 5-HT2B receptor; inhibition of EC80 serotonin calcium response
T2 construct: expressed in transfected cells; host or cells: CHO-K1
Procedure: CHO-K1 cells stably expressing the canine 5-HT2B receptor were seeded at 20,000 cells per well in 20 μl culture media (DMEM with GlutaMAX™ high glucose+5% dialyzed FBS+10 mM HEPES+1×MEM Non-Essential Amino Acids of a 384-well black plate with clear bottom for at least 18 hours at 37° C. and 5% CO2. The cell plate was loaded with 20 μl/well of the FLIPR® Calcium 5 Assay kit prepared in HBSS containing calcium and magnesium supplemented with 20 mM HEPES and 5 mM Probenecid at pH 7.4 and incubated at 37° C. and 5% CO2 for 30 minutes and then an additional 30 minutes at room temperature. The intracellular calcium response was measured using the FLIPR Tetra® instrument measuring the kinetic response of the Calcium 5 dye at an excitation wavelength of 470-495 nm and emission wavelength of 515-575 nm at room temperature. The cells were initially challenged with a 5× concentration of the antagonist (10 μl/well) after an initial baseline recording and the calcium response was recorded for almost 2 minutes. After the completion of the initial antagonist challenge, the cell plate was incubated at room temperature in the FLIPR Tetra® instrument for 10 minutes. Finally, a second kinetic assay was performed after the 10 minute incubation at room temperature to measure the inhibitory response of the EC80 concentration of serotonin (15 μl/well) after an initial baseline recording. The IC50 concentration was determined for each antagonist tested.

dogs with Stage B2 MMVD = conditions: cited from earlier work

T1 sequence (Q12809 whole entry): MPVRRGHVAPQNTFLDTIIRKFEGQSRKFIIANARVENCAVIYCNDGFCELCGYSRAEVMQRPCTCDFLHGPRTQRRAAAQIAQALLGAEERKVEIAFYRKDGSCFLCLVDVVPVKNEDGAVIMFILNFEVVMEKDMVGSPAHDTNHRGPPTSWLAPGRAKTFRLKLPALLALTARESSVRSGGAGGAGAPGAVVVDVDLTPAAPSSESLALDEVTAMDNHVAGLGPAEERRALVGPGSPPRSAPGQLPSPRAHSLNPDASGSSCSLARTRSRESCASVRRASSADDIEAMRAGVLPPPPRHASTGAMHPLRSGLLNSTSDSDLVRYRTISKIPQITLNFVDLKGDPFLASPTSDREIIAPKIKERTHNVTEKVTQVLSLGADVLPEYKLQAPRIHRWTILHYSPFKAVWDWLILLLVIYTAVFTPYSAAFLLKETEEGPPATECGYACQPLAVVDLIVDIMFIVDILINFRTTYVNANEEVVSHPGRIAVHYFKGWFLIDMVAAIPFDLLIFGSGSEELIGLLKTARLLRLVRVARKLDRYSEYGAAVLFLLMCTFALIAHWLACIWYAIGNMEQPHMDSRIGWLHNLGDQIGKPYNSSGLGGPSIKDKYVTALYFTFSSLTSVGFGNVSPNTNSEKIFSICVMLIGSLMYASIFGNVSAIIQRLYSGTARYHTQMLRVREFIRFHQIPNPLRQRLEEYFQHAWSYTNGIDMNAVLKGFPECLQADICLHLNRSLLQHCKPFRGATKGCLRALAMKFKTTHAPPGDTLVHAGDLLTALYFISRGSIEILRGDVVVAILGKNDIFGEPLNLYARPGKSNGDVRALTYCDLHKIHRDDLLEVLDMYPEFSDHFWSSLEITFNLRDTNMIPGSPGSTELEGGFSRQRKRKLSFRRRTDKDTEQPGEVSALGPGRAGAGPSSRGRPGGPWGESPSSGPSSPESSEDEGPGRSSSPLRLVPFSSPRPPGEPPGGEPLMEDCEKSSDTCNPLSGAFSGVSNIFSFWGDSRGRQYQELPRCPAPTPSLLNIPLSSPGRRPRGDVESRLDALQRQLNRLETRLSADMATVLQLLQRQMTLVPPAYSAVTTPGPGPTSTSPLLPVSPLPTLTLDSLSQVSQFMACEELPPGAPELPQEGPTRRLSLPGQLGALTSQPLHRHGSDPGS
T2 sequence (Q50DZ8 1-434): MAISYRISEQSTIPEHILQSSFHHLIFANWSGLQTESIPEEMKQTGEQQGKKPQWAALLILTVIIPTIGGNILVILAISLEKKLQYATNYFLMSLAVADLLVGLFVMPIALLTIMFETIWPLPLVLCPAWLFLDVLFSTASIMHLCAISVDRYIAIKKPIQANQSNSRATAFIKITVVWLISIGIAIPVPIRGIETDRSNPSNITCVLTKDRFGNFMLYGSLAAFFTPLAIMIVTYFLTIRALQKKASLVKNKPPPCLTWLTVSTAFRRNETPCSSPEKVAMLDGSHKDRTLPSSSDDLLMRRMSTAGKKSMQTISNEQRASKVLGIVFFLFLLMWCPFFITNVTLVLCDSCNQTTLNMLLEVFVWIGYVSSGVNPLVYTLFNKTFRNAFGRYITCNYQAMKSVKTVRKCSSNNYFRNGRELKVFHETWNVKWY

Row | SMILES | IC50 (canine 5-HT2B receptor) [nM] | IC50 (c5-HT2B) [nM] | IC50 (hERG) [nM] | time longer to develop CHF or die from MMVD than dogs receiving placebo (dogs with Stage B2 MMVD; pimobendan 0.2 or 0.3 mg/kg twice a day) [days] | delay in prolonging preclinical stage (dogs with Stage B2 MMVD; versus placebo) [%]
1 | O=C(c1ccc(-c2ccc(OC(F)(F)F)cc2)cc1)N1CCC(c2nc3ccccc3[nH]2)CC1 [CA-2, (4-(1H-benzo[d]imidazol-2-yl)piperidin-1-yl)(4′-(trifluoromethoxy)-[1,1′-biphenyl]-4-yl)methanone] |  | 95 |  |  | 
2 | O=C(c1ccc(-c2ccc(C(F)(F)F)s2)cc1)N1CCC(c2ncc[nH]2)CC1 [Example 22, (4-(1H-imidazol-2-yl)piperidin-1-yl)(4-(5-(trifluoromethyl)thiophen-2-yl)phenyl)methanone] | 20.5 |  | 2800 |  | 
3 | O=C(c1ccc(-c2ccc(C(F)F)cc2)cc1)N1CCC(Cc2ncc[nH]2)CC1 [Example 25, (4-((1H-imidazol-2-yl)methyl)piperidin-1-yl)(4′-(difluoromethyl)-[1,1′-biphenyl]-4-yl)methanone] | 0.46 |  | 3400 |  | 
4 | Cc1c[nH]c(C2CCN(C(=O)c3ccc(-c4c(C)[nH]c5ccccc45)cc3)CC2)n1 [Example 26, (4-(4-methyl-1H-imidazol-2-yl)piperidin-1-yl)(4-(2-methyl-1H-indol-3-yl)phenyl)methanone] | 0.84 |  | 13100 |  | 
5 | Cc1cnc(C2CCN(C(=O)c3ccc(-c4ccc5cc[nH]c5c4)cc3)CC2)[nH]1 [Example 27, (4-(1H-indol-6-yl)phenyl)(4-(5-methyl-1H-imidazol-2-yl)piperidin-1-yl)methanone] | 1.1 |  | 9280 |  | 
6 | O=C(c1ccc(-c2ccc(C(F)F)cc2)cc1)N1CCC(Nc2ncc[nH]2)CC1 [Example 33, (4-((1H-imidazol-2-yl)amino)piperidin-1-yl)(4′-(difluoromethyl)-[1,1′-biphenyl]-4-yl)methanone] | 18.6 |  | 5290 |  | 
7 | Cc1c[nH]c(C2CCN(C(=O)c3ccc(-c4c[nH]c5ccc(F)cc45)cc3)CC2)n1 [Example 34, (4-(5-fluoro-1H-indol-3-yl)phenyl)(4-(4-methyl-1H-imidazol-2-yl)piperidin-1-yl)methanone] | 21 |  | 13900 |  | 
8 | COc1ccc(-c2nc3ccc(C4=NNC(=O)CC4C)cc3[nH]2)cc1 (centres unmarked) [pimobendan] |  |  |  | 462 | 60

Further lines, with some results ahead:

Row | IC50 (canine 5-HT2B receptor) [nM] | SMILES | IC50 (c5-HT2B) [nM] | IC50 (hERG) [nM] | time longer to develop CHF or die from MMVD than dogs receiving placebo (dogs with Stage B2 MMVD; pimobendan 0.2 or 0.3 mg/kg twice a day) [days] | delay in prolonging preclinical stage (dogs with Stage B2 MMVD; versus placebo) [%]
9 | 0.02 | O=C(c1ccc(-c2c[nH]c3ccccc23)cc1)N1CCC(c2ncc[nH]2)CC1 [Example 23, (4-(1H-imidazol-2-yl)piperidin-1-yl)(4-(1H-indol-3-yl)phenyl)methanone] |  | 24800 |  | 
10 | 0.33 | O=C(c1ccc(-c2n[nH]c3ccccc23)cc1)N1CCC(c2ncc[nH]2)CC1 [Example 24, (4-(1H-imidazol-2-yl)piperidin-1-yl)(4-(1H-indazol-3-yl)phenyl)methanone] |  | 33600 |  | 
11 | 1.2 | O=C(c1ccc2c(-c3cccc4[nH]ccc34)c[nH]c2c1)N1CCC(c2ncc[nH]2)CC1 [Example 28, (4-(1H-imidazol-2-yl)piperidin-1-yl)(1H,1′H-[3,4′-biindol]-6-yl)methanone] |  | > 30000 |  | 
12 | 1.4 | O=C(c1ccc2c(-c3c[nH]c4ccccc34)c[nH]c2c1)N1CCC(c2ncc[nH]2)CC1 [Example 29, [4-(1H-imidazol-2-yl)-1-piperidyl]-[3-(1H-indol-3-yl)-1H-indol-6-yl]methanone] |  | 27100 |  | 
13 | 1.95 | O=C(c1ccc(-c2cc3ccccc3[nH]2)cc1)N1CCC(c2ncc[nH]2)CC1 [Example 30, (4-(1H-imidazol-2-yl)piperidin-1-yl)(4-(1H-indol-2-yl)phenyl)methanone] |  | 11000 |  | 
14 | 4.5 | Cc1cnc(C2CCN(C(=O)c3ccc4c(-c5ccccc5)c[nH]c4c3)CC2)[nH]1 [Example 31, (4-(5-methyl-1H-imidazol-2-yl)piperidin-1-yl)(3-phenyl-1H-indol-6-yl)methanone] |  | 19600 |  | 
15 | 7.3 | O=C(c1ccc2c(-c3ccccc3)c[nH]c2c1)N1CCC(c2ncc[nH]2)CC1 [Example 32, (4-(1H-imidazol-2-yl)piperidin-1-yl)(3-phenyl-1H-indol-6-yl)methanone] |  | 15200 |  | 
